Source: PMC3973943, “Microwave-assisted synthesis of some hybrid molecules containing penicillanic acid or cephalosporanic acid moieties and investigation of their biological activities” (Medicinal Chemistry Research, 2013)

Molecular target: Jack bean urease (Canavalia ensiformis, UniProt P07374)
Experiment: indophenol ammonia assay, […] nm
Type: biochemical

Jack bean urease, sequence (P07374 whole entry): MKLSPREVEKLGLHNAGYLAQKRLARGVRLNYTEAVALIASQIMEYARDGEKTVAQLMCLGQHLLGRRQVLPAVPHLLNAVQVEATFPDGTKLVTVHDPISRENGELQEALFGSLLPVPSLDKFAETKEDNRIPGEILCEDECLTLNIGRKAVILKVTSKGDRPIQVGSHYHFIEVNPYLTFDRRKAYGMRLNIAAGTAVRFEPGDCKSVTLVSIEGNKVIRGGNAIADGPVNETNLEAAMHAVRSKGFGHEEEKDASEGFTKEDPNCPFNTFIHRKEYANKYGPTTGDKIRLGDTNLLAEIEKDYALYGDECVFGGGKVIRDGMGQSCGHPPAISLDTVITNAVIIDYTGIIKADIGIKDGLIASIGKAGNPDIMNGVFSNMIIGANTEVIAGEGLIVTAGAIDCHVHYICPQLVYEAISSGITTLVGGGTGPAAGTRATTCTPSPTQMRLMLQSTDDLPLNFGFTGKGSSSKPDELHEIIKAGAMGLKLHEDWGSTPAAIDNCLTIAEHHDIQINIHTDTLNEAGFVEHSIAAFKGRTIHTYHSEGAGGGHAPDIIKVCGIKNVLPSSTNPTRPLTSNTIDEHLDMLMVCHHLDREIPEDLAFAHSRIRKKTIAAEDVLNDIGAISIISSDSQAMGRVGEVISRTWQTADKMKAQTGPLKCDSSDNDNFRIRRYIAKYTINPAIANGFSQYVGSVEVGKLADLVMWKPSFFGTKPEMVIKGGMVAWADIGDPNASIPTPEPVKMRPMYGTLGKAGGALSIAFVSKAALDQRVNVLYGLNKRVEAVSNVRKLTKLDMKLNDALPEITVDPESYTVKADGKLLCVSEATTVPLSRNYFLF

With NC(N)=S [Thiourea, reference compound] the IC50 was 717 µM.
With CCOC(=O)N1CCN(c2ccc(NCc3nn(CN[C@@H]4C(=O)N5C(C(=O)O)=C(COC(C)=O)CS[C@H]45)c(=S)n3-c3ccc(F)cc3)cc2F)CC1 [compound 15, ({[(6R,7R)-3-[(Acetyloxy)methyl]-7-({[3-[({4-[4-(ethoxycarbonyl)piperazin-1-yl]-3-fluorophenyl}amino)methyl]-4-(4-fluorophenyl)-5-thioxo-4,5-dihydro-1H-1,2,4-triazol-1-yl]methyl}amino)-8-oxo-5-thia-1-azabicyclo[4.2.0]oct-2-en-2-yl]carbonyl}oxy)triethyl ammonium] the IC50 was 6.15 µM.
Work on CCOC(=O)N1CCN(c2ccc(NCc3nn(CN[C@@H]4C(=O)N5[C@@H]4SC(C)(C)[C@@H]5C(=O)O)c(=S)n3-c3ccccc3)cc2F)CC1 [compound 17, [({(5R,6R)-6-[({3-[({4-[4-(Ethoxycarbonyl)piperazin-1-yl]-3-fluorophenyl}amino)methyl]-4-phenyl-5-thioxo-4,5-dihydro-1H-1,2,4-triazol-1-yl}methyl)amino]-3,3-dimethyl-7-oxo-4-thia-1-azabicyclo[3.2.0]hept-2-yl}carbonyl)oxy](triethyl)ammonium] yielded an IC50 of 66.3 µM.
